# *1 amine or outer side, *2 acyl side, *3 side chain or, on linkers, in order; H or OH if unused. Where a SMILES comes first, the peptide text is derived from it. Bridges are numbered along the chain shown (N, C = ends). [ ]: non-standard residue; d: D form. hPhe(3,5-F2-4-CF3) = N[C@@H](CCc1cc(F)c(C(F)(F)F)c(F)c1)C(=O)O; hPhe(3-Cl-4-CF3) = N[C@@H](CCc1ccc(C(F)(F)F)c(Cl)c1)C(=O)O; X48 = CCCN([C@@H](Cc1ccc(OCC=[*:3])cc1)C(=O)[*:2])[*:1]; NPrPhe(4-CF3) = CCCN[C@@H](Cc1ccc(C(F)(F)F)cc1)C(=O)O; X47 = CN([C@@H](CCC=[*:3])C(=O)[*:2])[*:1]; NMeGly(cPent) = CN[C@H](C(=O)O)C1CCCC1; Hyp = O=C(O)[C@@H]1C[C@@H](O)CN1; NMeD = CN[C@@H](CC(=O)O)C(=O)O; NMeL = CN[C@@H](CC(C)C)C(=O)O; Ac5c = NC1(C(=O)O)CCCC1; Ac4c = NC1(C(=O)O)CCC1; Sar = CNCC(=O)O
# Columns and labels:
# [1] = system: human lung cancer strain NCI-H441; assay type: cell-based
# Procedure, shortened: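 Readout: […] after the ATP-based reagent. Compound: serial dilutions in dimethyl sulfoxide.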
# [2] = molecular target: GDP-bound NRAS wild-type protein (Homo sapiens, UniProt P01111); experiment: Binding to NRAS by surface plasmon resonance (SPR), KD and KD ratio to KRAS
# GDP-bound NRAS wild-type protein, sequence (P01111 whole entry): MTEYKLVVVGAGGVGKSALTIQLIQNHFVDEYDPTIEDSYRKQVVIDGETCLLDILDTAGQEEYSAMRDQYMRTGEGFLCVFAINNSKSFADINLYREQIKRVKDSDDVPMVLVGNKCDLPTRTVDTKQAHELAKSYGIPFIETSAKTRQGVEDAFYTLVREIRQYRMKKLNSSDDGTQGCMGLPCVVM
# Procedure, shortened: (§1)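 GDP-bound biotin-Avi RAS captured at ~100–300 RU, 30°C, pH 7.4 HBS containing 10 µM GDP, 10 mM MgCl2, 1 mM DTT, 0.01% Tween 20 and 4% DMSO. KD by 1:1 fitting.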
# HRAS wild-type protein = HRAS wild-type protein (Homo sapiens, UniProt P01112); experiment: Binding to HRAS by surface plasmon resonance (SPR), KD and KD ratio to KRAS
# HRAS wild-type protein, sequence (P01112 whole entry): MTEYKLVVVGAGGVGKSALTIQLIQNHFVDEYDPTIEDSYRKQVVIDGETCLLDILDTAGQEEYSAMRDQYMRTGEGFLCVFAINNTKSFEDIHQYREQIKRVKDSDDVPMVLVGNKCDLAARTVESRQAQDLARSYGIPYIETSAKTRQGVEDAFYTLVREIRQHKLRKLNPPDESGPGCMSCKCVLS
# Procedure, shortened: as §1
# [3] = ratio of KD for GDP-bound NRAS wild-type protein to KD for KRAS
# [4] = ratio of KD for HRAS wild-type protein to KD for KRAS
# [5] = ratio of the KD value with respect to GDP-bound NRAS wild-type protein to the KD value with respect to KRAS
# [6] = ratio of the KD value with respect to HRAS wild-type protein to the KD value with respect to KRAS
IC50 [1],Structure (SMILES),"NRAS /KRAS [2, 3]",HRAS /KRAS (HRAS wild-type protein; [4]),"NRAS /KRAS [2, 5]",HRAS /KRAS (HRAS wild-type protein; [6]),also measured
11.9 nM,C#CC[C@H]1C(=O)N[C@@H]([C@@H](C)CC)C(=O)N(C)CC(=O)N(C)[C@H]2C/C=C\CCN(C2=O)[C@@H](Cc2ccc(C)cc2)C(=O)N(C)CC(=O)N[C@@H](CCc2ccc(C(F)(F)F)c(Cl)c2)C(=O)N2CC3(CC3)C[C@H]2C(=O)NC2(CC(C)(C)C2)C(=O)N(C)[C@@H](C2CCCC2)C(=O)N(C)[C@H](C(=O)N(C)C)CC(=O)N1C [PP2982],A (a compound having 10 or more and less than 20 is denoted as A),A (a compound having 10 or more and less than 20 is denoted as A),,,
8.4 nM,CCO[C@@H]1C[C@H]2C(=O)NC3(CC(C)(C)C3)C(=O)N(C)[C@@H](C3CCCC3)C(=O)N(C)[C@H](C(=O)N(C)C)CC(=O)N(C)[C@@H](CC3CCC3)C(=O)N[C@@H]([C@@H](C)CC)C(=O)N(C)CC(=O)N(C)[C@H]3C/C=C\CCN(C3=O)[C@@H](Cc3ccc(C(F)(F)F)cc3)C(=O)N(C)CC(=O)N[C@@H](CCc3cc(F)c(Cl)c(F)c3)C(=O)N2C1 [PP1762],,,,,NRAS /KRAS ([2]; ratio of KD value for GDP-bound NRAS wild-type protein to KD value for KRAS (SPR)): A (a compound having 10 or more and less than 20 is denoted as A); HRAS /KRAS (HRAS wild-type protein; ratio of KD value for HRAS wild-type protein to KD value for KRAS (SPR)): A (a compound having 10 or more and less than 20 is denoted as A)
11.7 nM,C#CC[C@H]1C(=O)N[C@@H]([C@@H](C)CC)C(=O)N(C)CC(=O)N(C)[C@H]2C/C=C\CCN(C2=O)[C@@H](Cc2ccc(C(F)(F)F)cc2)C(=O)N(C)CC(=O)N[C@@H](CCc2ccc(C(F)(F)F)c(Cl)c2)C(=O)N2CC3(CC3)C[C@H]2C(=O)NC2(CC(C)(C)C2)C(=O)N(C)[C@@H](C2CCCC2)C(=O)N(C)[C@H](C(=O)N(C)C)CC(=O)N1C [PP2980],A (a compound having 10 or more and less than 20 is denoted as A),B (a compound having 3 or more and less than 10 is denoted as B),,,
778 nM,CCO[C@@H]1C[C@H]2C(=O)NC3(CCC3)C(=O)N(C)[C@@H](C3CCCC3)C(=O)N[C@H](C(=O)N(C)C)CC(=O)N(C)[C@@H](CC)C(=O)N[C@@H]([C@@H](C)CC)C(=O)N(C)CC(=O)N(C)[C@H]3C/C=C\CCN(C3=O)[C@@H](Cc3ccc(C(F)(F)F)cc3)C(=O)N(C)CC(=O)N[C@@H](CCc3cc(F)c(C(F)(F)F)c(F)c3)C(=O)N2C1 [PP1094],A (a compound having 10 or more and less than 20 is denoted as A),B (a compound having 3 or more and less than 10 is denoted as B),,,
6.5 nM,CCC[C@H]1C(=O)N[C@@H]([C@@H](C)CC)C(=O)N2CCC[C@H]2C(=O)N(C)[C@H]2C/C=C\CCN(C2=O)[C@@H](Cc2ccc(C)cc2)C(=O)N(C)CC(=O)N[C@@H](CCc2ccc(C(F)(F)F)c(OC)c2)C(=O)N2C[C@H](OCC)C[C@H]2C(=O)N(C)C2(CCC2)C(=O)N(C)[C@@H](C(CC)CC)C(=O)N(C)[C@H](C(=O)N(C)C)CC(=O)N1C [PP2329],,,A (a compound having 10 or more and less than 20 is denoted as A),A (a compound having 10 or more and less than 20 is denoted as A),
9.2 nM,CCO[C@@H]1C[C@H]2C(=O)NC3(CCC3)C(=O)N(C)[C@@H](C3CCCC3)C(=O)N(C)[C@H](C(=O)N(C)CC)CC(=O)N(C)[C@@H](C)C(=O)N[C@@H]([C@@H](C)CC)C(=O)N(C)CC(=O)N(C)[C@H]3C/C=C\CCN(C3=O)[C@@H](Cc3ccc(C(F)(F)F)cc3)C(=O)N(C)CC(=O)N[C@@H](CCc3cc(F)c(C(F)(F)F)c(F)c3)C(=O)N2C1 [PP1302],,,,,NRAS /KRAS ([2]; ratio of KD with respect to GDP-bound NRAS wild-type protein to KD with respect to KRAS): A (a compound having 10 or more and less than 20 is denoted as A); HRAS /KRAS (HRAS wild-type protein; ratio of KD with respect to HRAS wild-type protein to KD with respect to KRAS): A (a compound having 10 or more and less than 20 is denoted as A)
1.8 nM,CCCN1C(=O)CN(C)C(=O)CN(C)C(=O)[C@H]([C@@H](C)CC)NC(=O)[C@H](CC(C)C)N(C)C(=O)C[C@@H](C(=O)N(C)C)N(C)C(=O)[C@H](C2CCCC2)N(C)C(=O)C2(CCC2)NC(=O)[C@@H]2CCCN2C(=O)[C@H](CCc2ccc(C(F)(F)F)c(Cl)c2)NC(=O)CN(C)C(=O)[C@@H]1Cc1ccc(C(F)(F)F)cc1 [PP0412] ([NMeL]I[Sar][Sar][NPrPhe(4-CF3)][Sar][hPhe(3-Cl-4-CF3)]P[Ac4c][NMeGly(cPent)][NMeD]-NMe2; lactam N-11),,,B (a compound having 3 or more and less than 10 is denoted as B),C (A compound having a KD ratio of 0.1 or more and less than 3 is denoted as C),
101 nM,CCO[C@@H]1C[C@H]2C(=O)NC3(CCC3)C(=O)N(C)[C@@H](C3CCCC3)C(=O)N[C@H](C)CC(=O)N(C)[C@@H](CC)C(=O)N[C@@H]([C@@H](C)CC)C(=O)N(C)CC(=O)N(C)[C@H]3C/C=C\CCN(C3=O)[C@@H](Cc3ccc(C(F)(F)F)cc3)C(=O)N(C)CC(=O)N[C@@H](CCc3cc(F)c(C(F)(F)F)c(F)c3)C(=O)N2C1 [PP1098],B (a compound having 3 or more and less than 10 is denoted as B),B (a compound having 3 or more and less than 10 is denoted as B),,,
75.5 nM,CCO[C@@H]1C[C@H]2C(=O)NC3(CC(C)(C)C3)C(=O)N(C)[C@@H](C(CC)CC)C(=O)N(C)[C@H](C(=O)N(C)C)CC(=O)N(C)[C@@H](CC3CCC3)C(=O)N[C@@H]([C@@H](C)CC)C(=O)N(C)CC(=O)N(C)[C@H]3C/C=C\CCN(C3=O)[C@@H](Cc3ccc(C)cc3)C(=O)N(C)CC(=O)N[C@@H](CCc3ccc(Cl)c(Cl)c3)C(=O)N2C1 [PP2120],,,AA (a compound having 20 or more is denoted as AA),A (a compound having 10 or more and less than 20 is denoted as A),
10.4 nM,CCC[C@H]1C(=O)N[C@@H]([C@@H](C)CC)C(=O)N(C2CC2)CC(=O)N(C)[C@H]2C/C=C\CCN(C2=O)[C@@H](Cc2ccc(C(F)(F)F)cc2)C(=O)N(C)CC(=O)N[C@@H](CCc2ccc(C(F)(F)F)c(OC)c2)C(=O)N2C[C@H](OCC)C[C@H]2C(=O)NC2(CC(C)(C)C2)C(=O)N(C)[C@@H](C2CCCC2)C(=O)N(C)[C@H](C(=O)N(C)C)CC(=O)N1C [PP2105],,,A (a compound having 10 or more and less than 20 is denoted as A),A (a compound having 10 or more and less than 20 is denoted as A),
37.6 nM,CCO[C@@H]1C[C@H]2C(=O)NC3(CCC3)C(=O)N(C)[C@@H](C3CCCC3)C(=O)N(C)[C@H](C(=O)N(C)C)CC(=O)N(C)[C@@H](CC)C(=O)N[C@@H]([C@@H](C)CC)C(=O)N(C)CC(=O)N(C)[C@H]3CCCCCN(C3=O)[C@@H](Cc3ccc(F)c(OC)c3)C(=O)N(C)CC(=O)N[C@@H](CCc3cc(F)c(C(F)(F)F)c(F)c3)C(=O)N2C1 [PP0915],B (a compound having 3 or more and less than 10 is denoted as B),B (a compound having 3 or more and less than 10 is denoted as B),,,
110 nM,CCO[C@@H]1C[C@H]2C(=O)NC3(CCC3)C(=O)N(C)[C@@H](C3CCCC3)C(=O)N(C)[C@H](C(=O)N(C)C)CC(=O)N(C)[C@@H](Cc3ccc(Cl)cc3)C(=O)N[C@@H]([C@@H](C)CC)C(=O)N(C)CC(=O)N(C)[C@H]3CCCCCN(C3=O)[C@@H](Cc3ccc(C(F)(F)F)cc3)C(=O)N(C)CC(=O)N[C@@H](CCc3cc(F)c(C(F)(F)F)c(F)c3)C(=O)N2C1 [PP0940],B (a compound having 3 or more and less than 10 is denoted as B),C (A compound having a KD ratio of 0.1 or more and less than 3 is denoted as C),,,
4.9 nM,"CCCN1C(=O)CN(C)C(=O)CN(C)C(=O)[C@H]([C@@H](C)CC)NC(=O)[C@@H]2CCC=CCOc3ccc(cc3)C[C@H]1C(=O)N(C)CC(=O)N[C@@H](CCc1cc(F)c(C(F)(F)F)c(F)c1)C(=O)N1C[C@H](OCC)C[C@H]1C(=O)NC1(CCCC1)C(=O)N(C)[C@@H](C1CCCC1)C(=O)N(C)[C@H](C(=O)N(C)C)CC(=O)N2C [PP0900] ([X47]I[Sar][Sar][X48][Sar][hPhe(3,5-F2-4-CF3)][Hyp](Et)[Ac5c][NMeGly(cPent)][NMeD]-NMe2; staple 1-5; lactam N-11)",C (A compound having a KD ratio of 0.1 or more and less than 3 is denoted as C),C (A compound having a KD ratio of 0.1 or more and less than 3 is denoted as C),,,
11.4 nM,CCO[C@@H]1C[C@H]2C(=O)NC3(CC(C)(C)C3)C(=O)N(C)[C@@H](C(CC)CC)C(=O)N(C)[C@H](C(=O)N(C)C)CC(=O)N(C)[C@@H](COC)C(=O)N[C@@H]([C@@H](C)CC)C(=O)N(C)CC(=O)N(C)[C@H]3C/C=C\CCN(C3=O)[C@@H](Cc3ccc(C(F)(F)F)cc3)C(=O)N(C)CC(=O)N[C@@H](CCc3cc(F)c(C(F)(F)F)c(F)c3)C(=O)N2C1 [PP2121],,,AA (a compound having 20 or more is denoted as AA),A (a compound having 10 or more and less than 20 is denoted as A),
17.1 nM,CC[C@H](C)[C@@H]1NC(=O)[C@H](CC(F)(F)F)N(C)C(=O)C[C@@H](C(=O)N2CCOCC2)N(C)C(=O)[C@H](C2CCCC2)N(C)C(=O)C2(CCCC2)NC(=O)[C@@H]2CCCN2C(=O)[C@H](CCc2cc(F)c(C(F)(F)F)c(F)c2)NC(=O)CN(C)C(=O)[C@H](Cc2ccc(C(F)(F)F)cc2)N2CCCCC[C@@H](C2=O)N(C)C(=O)CN(C)C1=O [PP0520],,,B (a compound having 3 or more and less than 10 is denoted as B),B (a compound having 3 or more and less than 10 is denoted as B),

# Source: patent publication EP4603105A1, “PHARMACEUTICAL COMPOSITION CONTAINING CYCLIC COMPOUND HAVING SELECTIVE KRAS INHIBITORY EFFECT AGAINST HRAS AND NRAS” (CHUGAI SEIYAKU KABUSHIKI KAISHA, priority 2022, dated 2024)
